Reference: patent US10265296B2, “Methods for the treatment of systemic disorders treatable with mast cell stabilizers, including mast cell related disorders” (Respivant Sciences GmbH, priority 2015, dated 2019)
Read-outs that look alike come from different tables or passages of the source.

Legend:
[1] = cited from earlier work
[2] = Single-dose, dose escalation study Part 1: pharmacokinetics of plasma and urine DSCG in healthy subjects; format: in vivo, human; settings: same dose (40 mg)
Protocol: • 1. […] 200 mg oral sodium cromoglycate solution (commercially available product), oral administration. […] 200 mg oral sodium cromoglycate solution (commercially available product), oral administration.
Prior to each dosing day, subjects were admitted to the clinic in the morning for baseline (pre-dose) assessments. Subjects were required to remain in the clinic for 12 h after study drug administration on each dosing day. Treatment Visits were separated by a washout period of 2 to 5 days.
Urine DSCG levels were measured for total DSCG excretion in the urine, and the bioavailability of the DSCG was calculated from the measured levels.
Pharmacokinetic parameters and plasma concentrations are listed and summarized. The summary statistics are presented as the geometric mean, arithmetic mean, arithmetic standard deviation (SD), min, median, max and n. The geometric statistics are not presented for Tmax. Analysis of variance (ANOVA) including terms for subject and treatment are used to calculate point estimates, and confidence intervals (CI) for treatment differences with respect to PK parameters (90% CI) are calculated.

In the case of `O=C(O)c1cc(=O)c2c(OCC(O)COc3cccc4oc(C(=O)O)cc(=O)c34)cccc2o1` [Cromolyn sodium, cromolyn sodium], the oral bioavailability ([1]; listed as cromolyn sodium) is given as “less than 1%”, the oral bioavailability ([1]; listed as cromolyn) is given as “about 1%” and the “lung deposition with the 30 L device compared with the 40 L device, indicated by AUC data” value [2] is given as “surprisingly higher”.
